Reference: patent US9802990B2, “Functional peptides for obesity disorders” (DANONE, S.A., priority 2013, dated 2017)
Read-outs that look alike come from different tables or passages of the source. Where no end group is shown, it is not given here.

Assays:
[1] = In vitro enzymatic digestion model of the digestive tract (pepsin, pancreatin, bile), HPLC; assay type: in vitro ADME; conditions: for metabolised at 0.5 h / metabolised at 2 h / metabolised at 0.25 h / metabolised at 1 h / metabolised at 5 min: read-out: Degradation (%); for metabolised at 0.25 h: Intestinal phase 15 min.; for metabolised at 1 h: Intestinal phase 60 min.; for metabolised at 5 min: Oral phase 5 min.
Text: An in vitro enzymatic digestion model of an in vivo digestive tract was developed for mimicking the physiological conditions to check and certify that each selected peptide was differently degraded throughout the gastro-intestinal tract by the digestive process. Pepsin, pancreatin and bile concentrations were optimized using a published experimental design (Granado-Lorencio et al (2007). J. Agri. Food. Chem., 55, 6387-6394).

[2] = system: C. elegans wild type strain N2; experiment: C. elegans body fat reduction, Nile Red staining; assay type: in vivo, Caenorhabditis elegans; conditions: for % Fluorescence Reduction: nematodes fed NG with peptides alone or in Savia soy fermented product, alone or mixed, 1 μg/mL final concentration, Nile Red; for % Fluorescence Reduction C. elegans: synthesized peptides at 1 μg/mL of final concentration
Method: The ability to reduce body fat content in the nematode C. elegans was analyzed in a group of 5 peptide extracts previously obtained from glycinin (see Table 4). These samples were selected by their high effect on PL and PLA2 in vitro inhibition. Specifically, 5 peptide extracts were selected from the PLA2 inhibition assay (M20G, M5G, M31G, M27G and M29G). Body fat content was analyzed in the C. elegans wild type strain N2 by Red Nile dying of living nematodes. Experiments were carried out with age-synchronized populations, starting from egg-stage to young adult stage (3-day adults). During the experiments, worms were cultured in the NGM agar plates as control condition, NGM with the corresponding peptide extracts (100 μL/plate) and NGM with 6 μg/mL of Orlistat as positive control. Nile Red was added on top of the NG plates already seeded with Escherichia coli OP50 strain to a final concentration of 0.05 μg/ml. After incubation at 20° C., young adult worms (60 worms per condition) were taken to measure the in vivo fluorescence in a VersaFluor™ Fluorometer System. Fluorescence obtained in treated worms was calculated from fluorescence of worms fed in control conditions (reference sample). Experiments were carried out by duplicate.
From these purified fractions, a total of 11 peptides were selected to be synthesized and evaluated in vivo in the obesity model of C. elegans (Table 9). All peptides were evaluated at 1 μg/mL of final concentration.
We selected 5 peptides obtained from hydrolysis of glycinin with strain 6 (P8a, P6a, P14c, P16f, P14b) The peptides from glycinin were added to a soy fermented product (Savia® from Danone) both alone or mixed at final concentration of 1 μg/mL. Nematodes were fed with these products and then total lipids were quantified by Nile Red staining.

[3] = target: PLA2 (pancreatic phospholipase A2) (Homo sapiens, UniProt P04054); experiment: PLA2 inhibition assay by HPLC with DOPC as substrate; assay type: biochemical
Chain of PLA2 (pancreatic phospholipase A2) (P04054 23-148, species assumed): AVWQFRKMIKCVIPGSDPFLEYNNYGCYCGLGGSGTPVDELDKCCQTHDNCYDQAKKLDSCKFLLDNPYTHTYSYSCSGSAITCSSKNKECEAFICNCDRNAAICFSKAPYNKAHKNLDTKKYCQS
Method: Inhibition of PLA2 enzyme was determined by High Performance Liquid Chromatography (HPLC) using 1,2-dioleoyl-sn-glycero-3-phosphocholine (DOPC) as substrate as described by Singh et al. (A rapid isocratic high-performance liquid chromatography method for determination of cholesterol and 1,2-dioleoyl-sn-glycero-3-phosphocholine. Journal of Chromatography (2005); 1073:347-353). Waters 2695 HPLC with Waters 2996 Photodiode detector Array and a C8 column Hypersil BDS (250×4.6 mm, […]) were used carrying out an eluent isocratic method formed by a mixture of ammonium phosphate buffer 50 mM pH 2.7:methanol (15:85, v/v).

[4] = target: T1, PL (pancreatic lipase) (Sus scrofa, UniProt P00591); experiment: PL inhibition assay with 4-methyl umbelliferyl oleate (4MUO), fluorescence; assay type: biochemical; conditions: synthesized peptides
T1 sequence (P00591 1-450): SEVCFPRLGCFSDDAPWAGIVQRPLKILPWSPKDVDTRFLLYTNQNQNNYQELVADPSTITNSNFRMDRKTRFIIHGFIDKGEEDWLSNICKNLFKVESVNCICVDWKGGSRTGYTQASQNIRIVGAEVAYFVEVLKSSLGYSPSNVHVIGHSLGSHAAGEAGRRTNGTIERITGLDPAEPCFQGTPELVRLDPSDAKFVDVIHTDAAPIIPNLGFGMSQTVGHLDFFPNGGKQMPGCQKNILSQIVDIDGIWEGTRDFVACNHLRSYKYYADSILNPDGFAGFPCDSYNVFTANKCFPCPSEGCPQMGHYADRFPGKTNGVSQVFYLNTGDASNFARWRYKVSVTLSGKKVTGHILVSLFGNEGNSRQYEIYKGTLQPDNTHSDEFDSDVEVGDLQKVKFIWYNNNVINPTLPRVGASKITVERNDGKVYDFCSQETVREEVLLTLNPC
Method: Inhibition of PL was determined using 4-methyl umbelliferyl oleate (4MUO) as substrate as described by Sugiyama et al. (Oligomeric procyanidins in apple polyphenol are main active components for inhibition of pancreatic lipase and triglyceride absorption. J Agric Food Chem (2007); 55: 4604-4609) with some modifications. Aliquots of 25 μl of each peptide extract were incubated with 25 μl of PL solution (1 mg/ml) and preincubated for 10 minutes at 26° C. with stirring of 500 rpm. Reaction was initiated by adding 50 μl of 4MUO (0.1 mM) dissolved in Dulbecco's buffer. After incubation at 26° C. for 20 minutes with constant stirring (500 rpm) the reaction was stopped by adding 100 μl of 0.1 M sodium citrate buffer (pH 4.2). The amount of 4-methyl umbelliferone released by the enzyme was determined by fluorescence. Peptide extracts were used as inhibitors in the enzymatic assay but had to be diluted 1/20 or 1/50 because of the interference between the fluorescence and the buffer containing the peptides.

| Substance | metabolised at 0.5 h ([1]; Gastric phase 30 min.) [%] | metabolised at 2 h ([1]; Gastric phase 120 min.) [%] | metabolised at 0.25 h [1] [%] | metabolised at 0.5 h ([1]; Intestinal phase 30 min.) [%] | metabolised at 1 h [1] [%] | metabolised at 2 h ([1]; Intestinal phase 120 min.) [%] | metabolised at 5 min [1] [%] | % Fluorescence Reduction [2] [%] | % Fluorescence Reduction C. elegans [2] [%] | Percentage of PLA2 inhibition ([3]; peptide 0.035 mg/ml) [%] | Percentage of PLA2 inhibition ([3]; peptide 0.35 mg/ml) [%] | Percentage of PLA2 inhibition ([3]; peptide 2 mg/ml) [%] | Percentage of PLA2 inhibition ([3]; peptide 3.5 mg/ml) [%] | IC50 [4] [µM] | degradation in the in vitro digestion model (in words) ([1]; HPLC, completely degraded = at the beginning of the intestinal phase, resistant ones finally degraded at the end) |
| --- | --- | --- | --- | --- | --- | --- | --- | --- | --- | --- | --- | --- | --- | --- | --- |
| SDNFEY [Peptide P6a, SDNFEY] | 31 | 66.9 | 100 | 100 | 100 | 100 | 23.7 | 36.2 ± 4.1 | 40.90 ± 11.6 | 10.6 ± 5.0 | 12.1 ± 4.0 | 24.5 ± 1.4 | 31.9 ± 5.5 | 55.6 | – |
| EEDQPRPDHPPQRP [Peptide P14c, EEDQPRPDHPPQRP] | 4.2 | 4.6 | 92.9 | 93.2 | 95 | 95.5 | 5.3 | 33.7 ± 5.5 | 39.37 ± 7.08 | 20.4 ± 4.4 | 21.1 ± 4.3 | 25.2 ± 4.3 | 26.1 ± 4.1 | 28.9 | completely degraded |
